According to PubChem BioAssay (NCI):
“And” between values parts separate entries of the source, which are not always exact repeats. Equal entries are not always repeated.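 These data come from cells grown in 96-well plates and exposed to compound for 48 hours at five concentrations. GI50 is the concentration that inhibits growth by half. At the TGI there is no net growth.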

Tests used:
Test in all cases: NCI tumour cell line growth inhibition, 48 h
HT29 colon = system: HT29 colon
RXF 393 renal = system: RXF 393 renal
SF-268 CNS = system: SF-268 CNS
ACHN renal = system: ACHN renal
NCI-H23 lung = system: NCI-H23 lung
U251 CNS = system: U251 CNS
LOX IMVI melanoma = system: LOX IMVI melanoma
786-0 renal = system: 786-0 renal
OVCAR-8 ovarian = system: OVCAR-8 ovarian

Compound	TGI (HT29 colon)	TGI (RXF 393 renal)	TGI (SF-268 CNS) [µM]	TGI (ACHN renal) [µM]	TGI (NCI-H23 lung) [µM]	TGI (U251 CNS) [µM]	TGI (LOX IMVI melanoma) [µM]	TGI (786-0 renal) [µM]	TGI (OVCAR-8 ovarian) [µM]	GI50 (HT29 colon)	GI50 (RXF 393 renal)	GI50 (SF-268 CNS)	GI50 (ACHN renal)	GI50 (NCI-H23 lung)	GI50 (U251 CNS)	GI50 (LOX IMVI melanoma)	GI50 (786-0 renal)	GI50 (OVCAR-8 ovarian)
Cc1ccc(NC(=O)/C(Cc2nc3ccc([N+](=O)[O-])cc3[nH]c2=O)=N\NC(=O)C[n+]2ccccc2)c(C)c1	> 100 µM	73.1 µM	> 100	47.6	> 100	> 100	> 100	79.9	74	–	–	–	–	–	–	–	–	–
Nc1cc(-c2ccc(Cl)cc2)nn1-c1nnc(/C=C/c2ccco2)c(=O)[nH]1	> 100 µM	34.7 µM	39	17.7	63.5	37.7	37.8	23.9	33	6.61 µM	9.91 µM	3.37 µM	3.09 µM	7.73 µM	3 µM	4.82 µM	5.04 µM	4.09 µM
c1cnn2ncc(-c3ccnc(Nc4ccc5c(c4)OCCO5)n3)c2c1	0.358 µM	0.137 µM	0.311	> 25	0.286	2.69	> 25	> 25	> 25	0.0691 µM	0.0535 µM	0.0687 µM	0.0549 µM	0.0692 µM	0.0778 µM	0.0392 µM	0.0764 µM	0.0687 µM
Clc1ccc2c(c1)N(c1ncnc3ccc(-c4cnc5[nH]ncc5c4)cc13)CC2	> 100 µM	0.97 µM	> 100	> 100	> 100	> 100	> 100	> 100	> 100	0.344 µM	0.229 µM	0.538 µM	0.317 µM	2.68 µM	9.79 µM	0.338 µM	0.689 µM	0.966 µM
COC(=O)c1ccc2c(c1)C(=O)c1c-2n(CCCN=[N+]=[N-])c(=O)c2cc([N+](=O)[O-])ccc12	> 100 µM	> 100 µM	> 100	28.7	> 100	48.8	> 100	79	> 100	> 100 µM	37.3 µM	17.3 µM	13 µM	60 µM	18 µM	61.6 µM	25.1 µM	> 100 µM
Cc1ccc(-n2nc(C(C)(C)C)cc2NC(=O)NCc2cc(F)ccc2Oc2ccc3c(cnn3CCO)c2)cc1	> 10 µM and 26.6 µM	> 10 µM and 23.7 µM	> 100	> 56.2	> 85.3	> 100	> 38.1	> 100	> 100	0.718 µM and 2.44 µM	7.04 µM and 4.64 µM	> 10 µM and 4.61 µM	4.3 µM and 2.79 µM	5.6 µM and 6.17 µM	> 10 µM and 7.01 µM	0.836 µM and 2.37 µM	> 10 µM and 8.58 µM	> 10 µM and 8.96 µM
CC(C)Oc1ccc(C(=O)Cn2ccnc2)cc1-n1c(CN2CCN(C(=O)COc3ccc(Cl)cc3)CC2)nc2ccccc2c1=O	44.9 µM	22.2 µM	32.9	3.14	37.7	30.2	27.5	5.48	53.2	14.8 µM	7.48 µM	12.9 µM	1.61 µM	16.2 µM	13.2 µM	9.64 µM	1.3 µM	15.5 µM
O=C(O)c1ccccc1C(=O)c1ccc2c(c1)Cc1ccccc1-2	> 100 µM	> 100 µM	> 100	> 100	> 100	> 100	> 100	> 100	> 100	–	–	–	–	–	–	–	–	–
OCc1ccc(N2CCOCC2)cc1Cl	> 100 µM	> 100 µM	> 100	> 100	> 100	> 100	> 100	> 100	> 100	> 81.8 µM	> 79.1 µM	> 100 µM	> 100 µM	> 100 µM	> 72.2 µM	> 100 µM	> 100 µM	> 100 µM
C/C1=C\CC[C@@](C)(O)[C@@H]2C[C@H](CC/C(C)=C/CC1)C1(CC1)C(=O)O2	> 100 µM	> 100 µM	> 100	> 100	48.7	57.1	34.5	> 100	> 100	31.4 µM	> 100 µM	81.7 µM	34.4 µM	18.9 µM	23 µM	18.8 µM	44.6 µM	61.5 µM
O=C1c2cccc3cccc(c23)C(=O)N1O	> 100 µM	68.5 µM	> 100	> 100	> 100	> 100	> 100	> 100	> 100	–	–	–	–	–	–	–	–	–
COc1ccc(C2=C(N3CCc4ccccc43)C(=O)NC2=O)cc1	> 25 µM	> 25 µM	> 25	> 25	> 25	> 25	> 25	> 25	> 25	> 25 µM	> 25 µM	> 25 µM	> 25 µM	> 25 µM	> 25 µM	> 25 µM	> 25 µM	> 25 µM
CCn1c(-c2nonc2N)nc2ccncc21	> 25 µM	> 25 µM	> 25	> 25	> 25	> 25	> 25	> 25	> 25	> 25 µM	> 25 µM	> 25 µM	> 25 µM	> 25 µM	> 25 µM	> 25 µM	> 25 µM	> 25 µM
c1ccc2[nH]c(CNc3ccc(C4C[Se]N=N4)cc3)nc2c1 (centres undefined)	> 100 µM	> 100 µM	> 100	> 100	> 100	> 100	> 100	> 100	> 100	–	–	–	–	–	–	–	–	–
COc1cccc2c(=O)c3c(sc12)c(NCCCNCCO)nc1ccccc13	3.75 µM	2.84 µM	3.33	2.67	3.27	3.02	2.96	3.25	3.97	1.54 µM	1.46 µM	1.59 µM	1.35 µM	1.64 µM	1.53 µM	1.48 µM	1.75 µM	1.78 µM
